Data as given in patent US7138246B2, “Methods for identifying or screening for agents that modulate 17β-HSD3” (Bristol-Myers Squibb Company, priority 2004, dated 2006).
pIC50: −log10 of the molar value.

Columns and labels:
[1] = biological target: T1, 17β-HSD3 (Homo sapiens, UniProt P37058); assay: 17β-HSD3 SEAP assay (PSA reporter) in MDA MB 453/17β-HSD3 cells; assay type: cell-based; design: expressed in transfected cells; conditions: MDA-MB453-17β-HSD3 cells, PSA-SEAP reporter, read-out: IC50, 17β-HSD3 cell based activity
T1 sequence (P37058 1-310): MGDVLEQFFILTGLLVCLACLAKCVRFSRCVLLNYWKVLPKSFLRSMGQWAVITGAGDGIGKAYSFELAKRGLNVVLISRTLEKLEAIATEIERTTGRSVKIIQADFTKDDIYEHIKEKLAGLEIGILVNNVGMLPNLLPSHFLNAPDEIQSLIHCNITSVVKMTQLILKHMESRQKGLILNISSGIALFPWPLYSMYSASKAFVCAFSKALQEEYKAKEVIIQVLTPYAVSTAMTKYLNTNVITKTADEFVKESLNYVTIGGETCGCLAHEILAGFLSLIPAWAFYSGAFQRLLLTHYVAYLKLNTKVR
Description: Cultured MDA MB 453/17β-HSD3 cells were trypsinized, spun at 1000 rpm for 10 minutes, and resuspended in DMEM/10% cFBS supplemented with 5 mM BES at a concentration of 4×10^7 cells per mL. The cells (aliquots of 1×10^7 cells) were then transiently transfected with 3 μg of the PSA-SEAP construct by electroporation at 0.22 kVolts and 960 μFD with a time constant of […]. After a short recovery period, the cells were spun down and resuspended in DMEM/10% cFBS and plated into 96-well tissue culture plates (5×10^5 cells per well in 50 μL). After overnight adherence, the compounds were diluted in DMEM/10% and cFBS was added to the cells. 24 hours later, the medium was removed, fresh media containing the compounds was added in the presence of 10 nM Androstenedione, and this mixture was allowed to incubate for 24 hours. 25 μL of the culture supernatant was then removed and plated into 96-well black Optiplates (Perkin Elmer) for SEAP measurement as described by the reagent manufacturer (Tropix). Briefly, the supernatant was heat inactivated at 65° C. for 30 minutes and then allowed to cool to room temperature. Assay buffer (25 μL, Tropix) was then added and allowed to mix for 5 minutes followed by the addition of the Reaction buffer (25 μL, Tropix) and the plates were then incubated for 20 minutes in the dark. Plates were then read using a Packard Instruments TopCount with luminescent detection and signal was captured for 10 seconds per well and photon emission (cps) was averaged. A standard MTS assay (Promega) as described by the manufacturer, was performed in parallel to normalize the data based on cell numbers. Data analysis including percent inhibition and IC50 determination, based on 10 point serially diluted curves in duplicate, was then performed using Microsoft Excel and XLFit.
The analysis of 17β-HSD3 steroid conversion by TLC is hampered by the limitation to examine large numbers of compounds. […] To test this system, a prostate specific antigen (PSA) reporter plasmid was transfected into MDA-MB453 cells stably expressing 17β-HSD3 and stimulated with different concentrations of androstenedione (FIG. 5B).
To evaluate the suitability of this cellular assay for monitoring 17β-HSD3 cell based activity, the inhibitory effects of 18β-glycyrrhetinic acid and […] were examined.

[2] = biological target: T1, 17β-HSD3; assay: 17β-HSD3 scintillation proximity assay (SPA); assay type: biochemical; design: made in house; CHAPS-solubilised 100,000 x g supernatant; conditions: for 17β-HSD3 inhibitory activity in the SPA: FIG. 3B
Description: HEK293/17β-HSD3 cells were harvested by scraping or treatment with Cell Dissociation Buffer (Invitrogen) and collected in ice cold Phosphate Buffered Saline (PBS) containing a protease inhibitor cocktail (Complete Tabs, Roche Diagnostics). The cells were then pelleted by centrifugation at 1000 rpm and washed once more in the same buffer. The cells were then resuspended in 2× the cell pellet volume with ice cold lysis buffer (40 mM Tris-HCl pH7.5, 2 mM DTT, 1 mM EDTA, 10% Glycerol (v/v), 0.5% CHAPS (w/v), 1M 1-(3-sulfopropyl)pyridinium hydroxide, Complete Tab(s)) and dounce homogenized on ice. The crude lysate was then incubated on ice for 60 minutes to allow for membrane protein solubilization, followed by centrifugation at 100,000×g for 60 minutes at 4° C. The supernatant was then removed and dialyzed overnight at 4° C. against the enzyme storage buffer (40 mM Tris-HCl pH 7.5, 40 mM KCl, 2 mM DTT, 1 mM EDTA, 20% Glycerol (v/v), Complete Tab(s)). Protein concentration was determined by the Bradford assay, the enzyme was aliquotted, and stored at −80° C. Activity was assessed using the SPA described below.
SPA beads conjugated to anti-mouse IgG were incubated overnight in SPA Bead Buffer (50 mM Tris pH 8.0, 10% Glycerol (v/v)), with anti-Testosterone monoclonal antibody (2 μg antibody per 1 mg of SPA beads) under gentle rotation. The antibody saturated bead complex was then spun down at 500 rpm for 10 minutes at 4° C. and the beads were resuspended in SPA Bead Buffer at a final concentration of 0.5 mg/160 μL. The anti-T/SPA Beads were then stored at 4° C. until needed. Enzymatic assays were conducted in 30 μL total reaction volumes in 96-well white Optiplates (Perkin Elmer). The reaction buffer consisted of 50 mM MES pH 6.0, 2 mM DTT, 0.1% CHAPS, 3 mM NADPH, 10% Glycerol (v/v), 850 nM 4-Androstene-3,17-Dione, and 50 nM [3H]4-Androstene-3,17-Dione (Specific Activity 70–110Ci/mmol). Compounds were diluted such that the final concentration of ethanol and DMSO would not exceed 3% (v/v) and 1% (v/v) respectively, corresponding to concentrations that had little or no effect on enzymatic activity (data not shown). Previously prepared and frozen 17β-HSD3 enzyme was diluted into ice cold buffer containing 50 mM Mes, 40 mM KCl, 2 mM DTT, 1 mM EDTA, and 10% glycerol (v/v) and added last to the reaction mixture. The reaction was allowed to proceed for 60 minutes at room temperature and was stopped by the addition of 10 μL of 0.1N HCl. After the reactions were stopped, an excess of the anti-T/SPA Beads (0.5 mg) were added to each well to a final volume of 200 μL. The plates were sealed and shaken at ˜200 rpm on an orbital shaker at room temp for at least 90 minutes or overnight at 4° C. After allowing the beads to settle, the amount of [3H]Testosterone produced in each well was determined by scintillation counting on a Perkin Elmer TopCount instrument and collected as DPMs. The data was then analyzed and percent inhibition and/or IC50 values, based on 10 point serially diluted curves in duplicate or triplicate, were calculated using Microsoft Excel and XLFit programs. […] Input samples and unbound supernatants, from the enzymatic reactions, were quantitated by scintillation counting to aid in the calculation of bound versus free testosterone produced. Km values were calculated using the Lineweaver-Burke formula and plots where 1/v=(Km+[s])/(Vmax [s]). […]

| Compound | pIC50 ([1]; FIG. 5C) | 17β-HSD3 inhibitory activity in the SPA [2] | pIC50 [1] | pIC50 ([2]; read-out: IC50, 17β-HSD3 biochemical activity) |
| --- | --- | --- | --- | --- |
| C[C@]12C=CC(=O)C=C1C(=O)C[C@@H]1[C@@H]2CC[C@]2(C)C(=O)CC[C@@H]12 [1,4-androstadiene-1,6,17-trione] | 5.80 | potent inhibitory activity | – | – |
| COc1ccccc1CCNC(=O)c1cc(Oc2ccccc2)ccc1NC(=O)c1ccc(O)c(Cl)c1 [2-[(3-chloro-4-hydroxybenzoyl)amino]-N-[2-(2-methoxyphenyl)ethyl]-5-phenoxybenzamide] | – | – | 6.52 | 7.22 |
| CC1(C)[C@@H](O)CC[C@]2(C)[C@H]3C(=O)C=C4[C@@H]5C[C@@](C)(C(=O)O)CC[C@]5(C)CC[C@@]4(C)[C@]3(C)CC[C@@H]12 [18β-glycyrrhetinic acid] | 5.42 | potent inhibitory activity | – | – |
